Data taken from patent publication EP4745153A1, “GLP-1, GIP AND GCG RECEPTOR […] USE THEREOF” (Jiangsu Hengrui Pharmaceuticals Co., Ltd., priority 2023, dated 2025).
Starred links: 1 amine or outer side, 2 acyl side, 3 side chain; linkers in the order of their positions; H or OH if unused. Non-standard residues stand in square brackets, D forms with d. Residues, ends and D or L forms follow the SMILES beside them. Groups on a side chain read outwards from the residue. ξ: configuration not given here. *: point of attachment. C20 diacid = O=C(O)CCCCCCCCCCCCCCCCCCC(=O)*; γGlu = O=C(O)[C@H](CCC(=O)[*:2])N[*:1]; αMeK = C[C@](N)(CCCCN)C(=O)O; ξαMeL = CC(C)CC(C)(N)C(=O)O; ξIva = CCC(C)(N)C(=O)O; AEEA = NCCOCCOCC(=O)O; Aib = CC(C)(N)C(=O)O

How the values were obtained:
[1] = target: T1, human GIPR (Homo sapiens, UniProt P48546); assay: cAMP HTRF agonist activity assay in CHO-K1 cells expressing GIPR; type: cell-based; conditions: read-out: Activity against human GIPR (EC50 nM); also: 5% FBS, 0.1% Casein
T1 construct: expressed in transfected cells; host or cells: CHO-K1 clonal cell line
T1 sequence (P48546 22-466): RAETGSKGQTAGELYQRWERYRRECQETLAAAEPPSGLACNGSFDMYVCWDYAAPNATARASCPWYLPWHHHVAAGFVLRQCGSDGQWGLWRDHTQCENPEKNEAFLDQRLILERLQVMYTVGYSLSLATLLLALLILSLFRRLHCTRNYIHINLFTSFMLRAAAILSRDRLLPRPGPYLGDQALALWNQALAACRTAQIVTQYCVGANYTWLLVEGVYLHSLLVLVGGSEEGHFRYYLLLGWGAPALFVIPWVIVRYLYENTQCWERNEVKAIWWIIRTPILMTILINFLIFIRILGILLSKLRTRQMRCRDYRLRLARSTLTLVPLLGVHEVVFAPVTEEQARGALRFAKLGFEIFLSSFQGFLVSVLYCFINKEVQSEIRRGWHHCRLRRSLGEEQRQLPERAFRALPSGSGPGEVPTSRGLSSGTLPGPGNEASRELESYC
Procedure: Functional activity was determined in CHO-K1 clonal cell lines expressing GIPR, GLP-1R, and GCGR. […] Each recipient cell (5000 cells/well) was added to an SV 96-well plate (Cisbio, 66PL96025) and incubated with the prepared polypeptide at 37°Cfor 30 min. The resulting increase in intracellular cAMP was quantitatively measured using the cAMP-GS dynamic HTRF assay kit (Cisbio, 62AM4PEJ). Briefly, the intracellular cAMP levels were determined by adding cAMP-d2 conjugate in cell lysis buffer, followed by the antibody anti-cAMP-Eu cryptate (also in cell lysis buffer).
Using the maximum response percentage vs. the added polypeptide concentration, the relative EC50 values were derived through nonlinear regression analysis and fitted to a four-parameter logarithmic equation. For specific data, refer to Tables 7-1 to 7-8 below. […]

[2] = Pharmacokinetics in mice after single intravenous injection; set-up: species or system C57 mice; conditions: male, C57, mouse, in vivo, iv
Procedure: Male C57 mice were used as test animals. The target compound was administered via a single intravenous injection, and the pharmacokinetic characteristics of the compound in C57 mice in vivo (plasma) were determined.
Male C57 mice, weighing approximately 25g, aged 4-6 weeks. After preparing the polypeptide compound solution using 1×PBS dissolving solution, the compound was administered intravenously at a dose of 200 nmol/kg, where each compound was administered to 3 animals. Blood samples of 60 µL were collected at 5 min, 15 min, 0.5 h, 1 h, 2 h, 4 h, 6 h, 24 h, 48 h and 72 h after the infusion was completed and transferred to centrifuge tubes containing EDTA-K2 anticoagulant. Whole blood samples were centrifuged at 4000 g for 5 min at 4°C. Plasma was separated and plasma samples were frozen and stored at -80 °C.
Sample pretreatment method: 30 µL of plasma samples was taken, and 120 µL of 0.1% formic acid in methanol containing 1 ng/mL internal standard verapamil was added. The mixture was vortexed for 5 min, and centrifuged at 10000 rpm for 10 min at low temperature. 70 µL of supernatant was taken, and 70 µL of water was added and mixed well. Analysis was performed by LC-MS instrument.
LC-MS analysis method: (1) chromatographic conditions: mobile phases A and B: 0.1% formic acid in water and 0.1% formic acid in acetonitrile, respectively; gradient elution mode; flow rate: 0.5 mL/min; injection volume: 10 µL; chromatographic column: nanomicro Unisil C18aq (4.6 mm × 150 mm, 5 µm); column temperature: 40°C. (2) Mass spectrometry conditions: For mass spectrometry, an electrospray ionization source (ESI), positive ion analysis mode, and multiple reaction monitoring (MRM) scanning mode were used.
For data processing, SCIEX OS (Version 2.1.6) software was used to quantify blood drug concentration data and PKSolver (Version 2.0) software was used to calculate pharmacokinetic parameters.

Compound: CC[C@H](C)[C@H](NC(=O)[C@H](CO)NC(=O)[C@H](CC(C)C)NC(=O)[C@H](CC(=O)O)NC(=O)[C@H](CO)NC(=O)[C@@H](NC(=O)[C@H](Cc1ccccc1)NC(=O)[C@@H](NC(=O)CNC(=O)[C@H](Cc1c[nH]cn1)NC(=O)C(C)(C)NC(=O)[C@@H](N)Cc1c[nH]cn1)[C@@H](C)O)[C@@H](C)O)C(=O)N[C@@H](CC(C)C)C(=O)N[C@@H](CC(C)C)C(=O)N[C@@H](CCC(=O)O)C(=O)N[C@@H](CCCCNC(=O)COCCOCCNC(=O)COCCOCCNC(=O)CC[C@H](NC(=O)CCCCCCCCCCCCCCCCCCC(=O)O)C(=O)O)C(=O)N[C@@H](CCCCN)C(=O)N[C@@H](C)C(=O)N[C@@H](C)C(=O)NC(C)(CC)C(=O)N[C@@H](CCC(=O)O)C(=O)N[C@@H](Cc1ccccc1)C(=O)N[C@H](C(=O)N[C@@H](CCC(=O)O)C(=O)N[C@@H](Cc1c[nH]c2ccccc12)C(=O)N[C@@H](CC(C)C)C(=O)N[C@@H](CC(C)C)C(=O)N[C@@H](C)C(=O)NCC(=O)NCC(=O)N1CCC[C@H]1C(=O)N[C@@H](CO)C(=O)N[C@@H](CO)C(=O)NCC(=O)N[C@@H](C)C(=O)N1CCC[C@H]1C(=O)N1CCC[C@H]1C(=O)N1CCC[C@H]1C(=O)N[C@@H](CO)C(N)=O)C(C)C (stereo partly shown) [Compound 0136]
- EC50 [1]: 0.001 nM

Compound: CC[C@H](C)[C@H](NC(=O)[C@H](CO)NC(=O)[C@H](CC(C)C)NC(=O)[C@H](CC(=O)O)NC(=O)[C@H](CO)NC(=O)[C@@H](NC(=O)[C@H](Cc1ccccc1)NC(=O)[C@@H](NC(=O)CNC(=O)[C@H](Cc1c[nH]cn1)NC(=O)C(C)(C)NC(=O)[C@@H](N)Cc1c[nH]cn1)[C@@H](C)O)[C@@H](C)O)C(=O)NC(C)(CC(C)C)C(=O)N[C@@H](CC(C)C)C(=O)N[C@@H](CCC(=O)O)C(=O)N[C@@H](CCCCNC(=O)COCCOCCNC(=O)COCCOCCNC(=O)CC[C@H](NC(=O)CCCCCCCCCCCCCCCCCCC(=O)O)C(=O)O)C(=O)N[C@@H](CCCCN)C(=O)N[C@@H](C)C(=O)N[C@@H](C)C(=O)N[C@@H](CCC(N)=O)C(=O)N[C@@H](CCC(=O)O)C(=O)N[C@@H](Cc1ccccc1)C(=O)N[C@H](C(=O)N[C@@H](CCC(=O)O)C(=O)N[C@@H](Cc1c[nH]c2ccccc12)C(=O)N[C@@H](CC(C)C)C(=O)N[C@@H](CC(C)C)C(=O)N[C@@H](C)C(=O)NCC(=O)NCC(=O)N1CCC[C@H]1C(=O)N[C@@H](CO)C(=O)N[C@@H](CO)C(=O)NCC(=O)N[C@@H](C)C(=O)N1CCC[C@H]1C(=O)N1CCC[C@H]1C(=O)N1CCC[C@H]1C(=O)N[C@@H](CO)C(N)=O)C(C)C (stereo partly shown) [Compound 0143] (H-H[Aib]HGTFTSDLSI[ξαMeL]LEK([AEEA-AEEA-γGlu-C20 diacid])KAAQEFVEWLLAGGPSSGAPPPS-NH2)
- EC50 [1]: 0.004 nM
- clearance [2]: 2.82 mL/h/kg
- half-life [2]: 13.7 h

Compound: CC[C@H](C)[C@H](NC(=O)[C@H](CO)NC(=O)[C@H](Cc1ccc(O)cc1)NC(=O)[C@H](CC(=O)O)NC(=O)[C@H](CO)NC(=O)[C@@H](NC(=O)[C@H](Cc1ccccc1)NC(=O)[C@@H](NC(=O)CNC(=O)[C@H](CCC(N)=O)NC(=O)C(C)(C)NC(=O)[C@@H](N)Cc1c[nH]cn1)[C@@H](C)O)[C@@H](C)O)C(=O)N[C@@H](CC(C)C)C(=O)N[C@@H](CC(C)C)C(=O)N[C@@H](CCC(=O)O)C(=O)N[C@@H](CCCCNC(=O)COCCOCCNC(=O)COCCOCCNC(=O)CC[C@H](NC(=O)CCCCCCCCCCCCCCCCCCC(=O)O)C(=O)O)C(=O)N[C@@H](CCCCN)C(=O)N[C@@H](C)C(=O)N[C@@H](C)C(=O)NC(C)(C)C(=O)N[C@@H](CCC(=O)O)C(=O)N[C@@H](Cc1ccccc1)C(=O)N[C@H](C(=O)N[C@@H](CCC(=O)O)C(=O)N[C@@H](Cc1c[nH]c2ccccc12)C(=O)N[C@@H](CC(C)C)C(=O)N[C@@H](CC(C)C)C(=O)N[C@@H](C)C(=O)NCC(=O)NCC(=O)N1CCC[C@H]1C(=O)N[C@@H](CO)C(=O)N[C@@H](CO)C(=O)NCC(=O)N[C@@H](C)C(=O)N1CCC[C@H]1C(=O)N1CCC[C@H]1C(=O)N1CCC[C@H]1C(=O)N[C@@H](CO)C(N)=O)C(C)C [Compound 0156]
- EC50 [1]: 0.019 nM

Compound: CC[C@H](C)[C@H](NC(=O)[C@H](CO)NC(=O)[C@H](Cc1ccc(O)cc1)NC(=O)[C@H](CC(=O)O)NC(=O)[C@H](CO)NC(=O)[C@@H](NC(=O)[C@H](Cc1ccccc1)NC(=O)[C@@H](NC(=O)CNC(=O)[C@H](Cc1c[nH]cn1)NC(=O)C(C)(C)NC(=O)[C@@H](N)Cc1c[nH]cn1)[C@@H](C)O)[C@@H](C)O)C(=O)N[C@@H](CC(C)C)C(=O)N[C@@H](CC(C)C)C(=O)N[C@@H](CCC(=O)O)C(=O)N[C@@H](CCCCNC(=O)COCCOCCNC(=O)COCCOCCNC(=O)CC[C@H](NC(=O)CCCCCCCCCCCCCCCCCCC(=O)O)C(=O)O)C(=O)N[C@@H](CCC(N)=O)C(=O)N[C@@H](C)C(=O)N[C@@H](C)C(=O)N[C@@H](CCC(N)=O)C(=O)N[C@@H](CCC(=O)O)C(=O)N[C@@H](Cc1ccccc1)C(=O)N[C@H](C(=O)N[C@@H](CCC(=O)O)C(=O)N[C@@H](Cc1c[nH]c2ccccc12)C(=O)N[C@@H](CC(C)C)C(=O)N[C@@H](CC(C)C)C(=O)N[C@@H](C)C(=O)N[C@H](CCC(=O)O)C(=O)NCC(=O)N1CCC[C@H]1C(=O)N[C@@H](CO)C(=O)N[C@@H](CO)C(=O)NCC(=O)N[C@@H](C)C(=O)N1CCC[C@H]1C(=O)N1CCC[C@H]1C(=O)N1CCC[C@H]1C(=O)N[C@@H](CO)C(N)=O)C(C)C [Compound 0153]
- EC50 [1]: 0.01 nM

Compound: CC[C@H](C)[C@H](NC(=O)[C@](C)(CCCCN)NC(=O)[C@H](CO)NC(=O)[C@H](Cc1ccc(O)cc1)NC(=O)[C@H](CC(=O)O)NC(=O)[C@H](CO)NC(=O)[C@@H](NC(=O)[C@H](Cc1ccccc1)NC(=O)[C@@H](NC(=O)CNC(=O)[C@H](CCC(N)=O)NC(=O)C(C)(C)NC(=O)[C@@H](N)Cc1ccc(O)cc1)[C@@H](C)O)[C@@H](C)O)C(=O)N[C@@H](CC(C)C)C(=O)N[C@@H](CCC(=O)O)C(=O)N[C@@H](CCCCNC(=O)COCCOCCNC(=O)COCCOCCNC(=O)CC[C@H](NC(=O)CCCCCCCCCCCCCCCCCCC(=O)O)C(=O)O)C(=O)N[C@@H](CCCCN)C(=O)N[C@@H](C)C(=O)N[C@@H](C)C(=O)NC(C)(CC)C(=O)N[C@@H](CCC(=O)O)C(=O)N[C@@H](Cc1ccccc1)C(=O)N[C@H](C(=O)N[C@@H](CCC(=O)O)C(=O)N[C@@H](Cc1c[nH]c2ccccc12)C(=O)N[C@@H](CC(C)C)C(=O)N[C@@H](CC(C)C)C(=O)N[C@@H](C)C(=O)NCC(=O)NCC(=O)N1CCC[C@H]1C(=O)N[C@@H](CO)C(=O)N[C@@H](CO)C(=O)NCC(=O)N[C@@H](C)C(=O)N1CCC[C@H]1C(=O)N1CCC[C@H]1C(=O)N1CCC[C@H]1C(=O)N[C@@H](CO)C(N)=O)C(C)C (stereo partly shown) [Compound 0129] (H-Y[Aib]QGTFTSDYS[αMeK]ILEK([AEEA-AEEA-γGlu-C20 diacid])KAA[ξIva]EFVEWLLAGGPSSGAPPPS-NH2)
- EC50 [1]: 0.002 nM
